Assay results taken from PMC8387461, “T cell receptor recognition of hybrid insulin peptides bound to HLA-DQ8” (Nature Communications, 2021).

Columns and labels:
Type in all cases: cell-based, human
[1] = system: CD4+ T cell clone A1.9; assay: T cell stimulation assay, IFNγ ELISA, clone A1.9; settings: primary clone A1.9, APC EBV-KJ, 24 h, 31-mer C-peptide versus 15mer HIP titration
Procedure: (§1) Fig. 2 Comparison of the stimulatory capacity of full-length proinsulin C-peptide and HIP on T1D CD4 + T cell clones. […] Titration of full-length 31-mer C-peptide ([…], (open circles) and 15mer C-peptide-IAPP2 HIP ([…] (filled circles). Antigen presenting cells (APC) were the EBV line, EBV-KJ, (2 × 10^4 cells/well). APC were cultured for 24 h with the same number (2 × 10^4 cells/well) of the primary CD4 + T-cell clone and the peptide concentration indicated. T-cell response to peptide were indicated by secretion of IFNγ which was measured in triplicate by ELISA and reported as pg/ml. Mean and standard deviations of triplicate IFNγ measurements are shown. Results are representative of two experiments for each clone.
(§2) For primary T1D CD4+ T cell clones, cells were thawed and used directly in functional assays. For T cell stimulation assays, cloned CD4+ T cells were incubated with BLCL KJ (; HLA-DQ8 + : HLA-DQA1*03:01, HLA-DQB1*03:02), as APCs, together with synthetic peptides. For the alanine scan experiments, each peptide was added to a final concentration of 10 μM. T cell response to antigen was measured as interferon gamma (IFNγ) secretion into the culture media. The IFNγ concentration in the culture media was determined by ELISA (Biolegend).
(§3) Supplementary Figure 8. […]
(§4) type) at each position P-3 to P12 are shown. IFNγ was measured in triplicate by ELISA, concentrations are shown in pg/ml. […]

[2] = system: CD4+ T cell clone A2.13; assay: T cell stimulation assay, IFNγ ELISA, clone A2.13; settings: primary clone A2.13, APC EBV-KJ, 24 h
Procedure: as §1, §2

[3] = system: CD4+ T cell clone A3.10; assay: T cell stimulation assay, IFNγ ELISA, clone A3.10; settings: A3.10 T cell clone, as stated in the alanine scan section
Procedure: as §1, §2, §3, §4

## GQVELGGGNAVEVLK [HIP]
[1]
  response of clone to HIP versus proinsulin C-peptide: responds equally to proinsulin C-peptide or HIP
[2]
  response of clone to HIP: very weakly responded to the HIP peptide
[3]
  sensitivity to HIP relative to proinsulin C-peptide: 100 fold
